Key:
[1] = neutral pH; cited from earlier work
cancer cells line A549 = test: in vitro cytotoxicity, MTT viability assay; assay type: cell-based; conditions: free EPT, concentration not given
Procedure: The cellular toxicity of blank and EPT loaded scl-PHA nanoparticles as prepared in Example 2 were determined by using cancer cells line A549. The cells were cultured in Dulbecco's Modified Eagle's Medium (DMEM) containing 1% (v/v) Penicillin-Streptomycin (P/S, 10,000 U) antibiotic and 10% (v/v) Fetal Bovine Serum (FBS) and incubated for 24 h at 37° C. and 5% CO2. When cells grew to reach 95% confluence, they were detached from the cell culture flasks using trypsin-EDTA. The cell suspension was centrifuged at 900 rpm for 5 min and then resuspended in culture medium to get the final concentration of 1×10^5 cells/mL. About 200 μL of the cell suspensions were transferred to each well of a clear, flat bottom 96-well plate (Costar) and incubated for 24 h. On treatment day, medium was removed and fresh medium containing 4-fold serial dilutions i.e., 250.0 μg/mL (4 times), 62.5 μg/mL (8 times) and 1.6 μg/mL (12 times) of blank and EPT loaded scl-PHA nanoparticles was added. The toxicity of the nanoparticles was checked after 24, 48 and 72 h of treatment using 3-(4,5-dimethylthiazole-2-yl)-2,5-diphenyl tetrazolium (MTT) viability assay. About 5 mg of MTT was dissolved in 1 mL physiological buffer saline (PBS) solution, followed by 10 times dilution in culture medium. About 100 μL of MTT solution were added to each well after the removal of treatments and incubated for 4 h before the addition of 100 μl, of the solubilization solution (anhydrous isopropanol containing 0.1 N HCl and 10% Triton X-100). The plates were then incubated overnight and absorbance was taken at 570 nm on a microplate reader (BMG FLUOstar OPTIMA) and subtracted from the background signals at 690 nm. The cell % inhibition was calculated relative to wells containing only cell cultures without nanoparticles by using the following formula: […]

Cc1c2ccncc2c(C)c2c1[nH]c1ccccc12 [EPT, 5,11-dimethyl-6H-pyrido[4,3-b]carbazole]
water solubility [1]: approximately 0.62 mM | Relative % inhibition for A549 cells (cancer cells line A549; 24 h): 10.02 ± 0.86% | Relative % inhibition for A549 cells (cancer cells line A549; 48 h): 25.40 ± 1.35% | Relative % inhibition for A549 cells (cancer cells line A549; 72 h): 32.38%

— patent publication US20150118293A1, “NOVEL DELIVERY SYSTEM FOR ANTICANCER DRUG BASED ON SHORT-CHAIN- LENGTH POLYHYDROXYALKANOATE NANOPARTICLES” (priority 2013, published 2015)
